# Measured values from PubChem BioAssay (NCI).
#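 Step 1: Grow cells in 96-well plates. Step 2: Expose to compound for 48 hours at 5 concentrations. Step 3: Interpolate endpoints linearly; if unreached, use highest concentration. Abbreviation: GI50, concentration required for 50% inhibition of growth. TGI: concentration producing complete growth inhibition.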
# What was measured:
# Assay in all cases: NCI tumour cell line growth inhibition, 48 h
# UACC-62 melanoma = system: UACC-62 melanoma
# NCI-H23 lung = system: NCI-H23 lung
# NCI-H226 lung = system: NCI-H226 lung
# IGROV1 ovarian = system: IGROV1 ovarian
# DU-145 prostate = system: DU-145 prostate
# NCI-H460 lung = system: NCI-H460 lung
# RXF 393 renal = system: RXF 393 renal
# OVCAR-4 ovarian = system: OVCAR-4 ovarian
# OVCAR-5 ovarian = system: OVCAR-5 ovarian
# OVCAR-3 ovarian = system: OVCAR-3 ovarian
# MCF7 breast = system: MCF7 breast
# A549 NSCLC = system: A549 NSCLC
# HCC-2998 colon = system: HCC-2998 colon
# SR leukemia = system: SR leukemia
# SNB-19 CNS = system: SNB-19 CNS
# SK-OV-3 ovarian = system: SK-OV-3 ovarian
# T-47D breast = system: T-47D breast
# BT-549 breast = system: BT-549 breast
# SK-MEL-5 melanoma = system: SK-MEL-5 melanoma
# UO-31 renal = system: UO-31 renal
# KM12 colon = system: KM12 colon
# HOP-62 NSCLC = system: HOP-62 NSCLC
# MALME-3M melanoma = system: MALME-3M melanoma
# OVCAR-8 ovarian = system: OVCAR-8 ovarian
# SK-MEL-2 melanoma = system: SK-MEL-2 melanoma
# EKVX NSCLC = system: EKVX NSCLC
# U251 CNS = system: U251 CNS
# NCI-H522 lung = system: NCI-H522 lung
# M14 melanoma = system: M14 melanoma
# HCT-116 colon = system: HCT-116 colon
# CAKI-1 renal = system: CAKI-1 renal
# NCI/ADR-RES ovarian = system: NCI/ADR-RES ovarian
# LOX IMVI melanoma = system: LOX IMVI melanoma
# MDA-MB-231 breast = system: MDA-MB-231 breast
# HS 578T breast = system: HS 578T breast
# SF-295 CNS = system: SF-295 CNS
# MOLT-4 leukemia = system: MOLT-4 leukemia
# SNB-75 CNS = system: SNB-75 CNS
# HT29 colon = system: HT29 colon
# SN12C renal = system: SN12C renal
# TK-10 renal = system: TK-10 renal
# SK-MEL-28 melanoma = system: SK-MEL-28 melanoma
# HCT-15 colon = system: HCT-15 colon
# 786-0 renal = system: 786-0 renal
# COLO 205 colon = system: COLO 205 colon
# HL-60(TB) leukemia = system: HL-60(TB) leukemia
# RPMI-8226 leukemia = system: RPMI-8226 leukemia
# UACC-257 melanoma = system: UACC-257 melanoma
# SF-539 CNS = system: SF-539 CNS
# CCRF-CEM leukemia = system: CCRF-CEM leukemia
# A498 renal = system: A498 renal
# ACHN renal = system: ACHN renal
# SF-268 CNS = system: SF-268 CNS
# SW-620 colon = system: SW-620 colon
# PC-3 prostate = system: PC-3 prostate
# K-562 leukemia = system: K-562 leukemia
smiles,measurement,setting,value
COc1ccc2c(c1)[nH]c(=O)c1c3cccnc3cn21,GI50,UACC-62 melanoma,43.1 nM
same,TGI,UACC-62 melanoma,19.3 µM
same,GI50,NCI-H23 lung,131 nM
same,TGI,NCI-H23 lung,35.3 µM
same,GI50,NCI-H226 lung,40.9 nM
same,TGI,NCI-H226 lung,18.6 µM
same,GI50,IGROV1 ovarian,62.7 nM
same,TGI,IGROV1 ovarian,14.6 µM
same,GI50,DU-145 prostate,36.5 nM
same,TGI,DU-145 prostate,> 100 µM
same,GI50,NCI-H460 lung,36.3 nM
same,TGI,NCI-H460 lung,2060 nM
same,GI50,RXF 393 renal,19.5 nM
same,TGI,RXF 393 renal,55 nM
same,GI50,OVCAR-4 ovarian,73.5 nM
same,TGI,OVCAR-4 ovarian,> 100 µM
same,GI50,OVCAR-5 ovarian,205 nM
same,TGI,OVCAR-5 ovarian,> 100 µM
same,GI50,OVCAR-3 ovarian,25.1 nM
same,TGI,OVCAR-3 ovarian,58.8 nM
same,GI50,MCF7 breast,96.5 nM
same,TGI,MCF7 breast,14.1 µM
same,GI50,A549 NSCLC,47.9 nM
same,TGI,A549 NSCLC,24.4 µM
same,GI50,HCC-2998 colon,74.4 nM
same,TGI,HCC-2998 colon,17.7 µM
same,GI50,SR leukemia,27.1 nM
same,TGI,SR leukemia,5.75 µM
same,GI50,SNB-19 CNS,51.5 nM
same,TGI,SNB-19 CNS,> 100 µM
same,GI50,SK-OV-3 ovarian,46.4 nM
same,TGI,SK-OV-3 ovarian,> 52 µM
same,GI50,T-47D breast,2720 nM
same,TGI,T-47D breast,31.6 µM
same,GI50,BT-549 breast,356 nM
same,TGI,BT-549 breast,25.3 µM
same,GI50,SK-MEL-5 melanoma,25 nM
same,TGI,SK-MEL-5 melanoma,99.2 nM
same,GI50,UO-31 renal,79.7 nM
same,TGI,UO-31 renal,14.6 µM
same,GI50,KM12 colon,37.7 nM
same,TGI,KM12 colon,17.5 µM
same,GI50,HOP-62 NSCLC,66.6 nM
same,TGI,HOP-62 NSCLC,37 µM
same,GI50,MALME-3M melanoma,43.7 nM
same,TGI,MALME-3M melanoma,18.3 µM
same,GI50,OVCAR-8 ovarian,51.4 nM
same,TGI,OVCAR-8 ovarian,21.2 µM
same,GI50,SK-MEL-2 melanoma,37 nM
same,TGI,SK-MEL-2 melanoma,11.3 µM
same,GI50,EKVX NSCLC,1120 nM
same,TGI,EKVX NSCLC,> 94.5 µM
same,GI50,U251 CNS,41 nM
same,TGI,U251 CNS,12.2 µM
same,GI50,NCI-H522 lung,22.2 nM
same,TGI,NCI-H522 lung,68.2 nM
same,GI50,M14 melanoma,26.5 nM
same,TGI,M14 melanoma,19.9 µM
same,GI50,HCT-116 colon,49.6 nM
same,TGI,HCT-116 colon,14.3 µM
same,GI50,CAKI-1 renal,40.5 nM
same,TGI,CAKI-1 renal,14.7 µM
same,GI50,NCI/ADR-RES ovarian,23.1 nM
same,TGI,NCI/ADR-RES ovarian,57.1 nM
same,GI50,LOX IMVI melanoma,67.9 nM
same,TGI,LOX IMVI melanoma,14 µM
same,GI50,MDA-MB-231 breast,299 nM
same,TGI,MDA-MB-231 breast,25.4 µM
same,GI50,HS 578T breast,38.4 nM
same,TGI,HS 578T breast,> 48.8 µM
same,GI50,SF-295 CNS,33.9 nM
same,TGI,SF-295 CNS,5.9 µM
same,GI50,MOLT-4 leukemia,67.5 nM
same,TGI,MOLT-4 leukemia,> 100 µM
same,GI50,SNB-75 CNS,31 nM
same,TGI,SNB-75 CNS,57.3 µM
same,GI50,HT29 colon,30 nM
same,TGI,HT29 colon,168 nM
same,GI50,SN12C renal,80.2 nM
same,TGI,SN12C renal,> 100 µM
same,GI50,TK-10 renal,56 nM
same,TGI,TK-10 renal,18.8 µM
same,GI50,SK-MEL-28 melanoma,54 nM
same,TGI,SK-MEL-28 melanoma,> 100 µM
same,GI50,HCT-15 colon,43 nM
same,TGI,HCT-15 colon,29.3 µM
same,GI50,786-0 renal,66 nM
same,TGI,786-0 renal,15.8 µM
same,GI50,COLO 205 colon,35.9 nM
same,TGI,COLO 205 colon,146 nM
same,GI50,HL-60(TB) leukemia,26.2 nM
same,TGI,HL-60(TB) leukemia,1210 nM
same,GI50,RPMI-8226 leukemia,59.6 nM
same,TGI,RPMI-8226 leukemia,32.4 µM
same,GI50,UACC-257 melanoma,677 nM
same,TGI,UACC-257 melanoma,25.5 µM
same,GI50,SF-539 CNS,33 nM
same,TGI,SF-539 CNS,2390 nM
same,GI50,CCRF-CEM leukemia,43.7 nM
same,TGI,CCRF-CEM leukemia,> 100 µM
same,GI50,A498 renal,33.5 nM
same,TGI,A498 renal,4.53 µM
same,GI50,ACHN renal,82 nM
same,TGI,ACHN renal,13 µM
same,GI50,SF-268 CNS,68.6 nM
same,TGI,SF-268 CNS,42.7 µM
same,GI50,SW-620 colon,32.7 nM
same,TGI,SW-620 colon,13.2 µM
same,GI50,PC-3 prostate,33.8 nM
same,GI50,K-562 leukemia,27.1 nM
same,TGI,K-562 leukemia,19.8 µM
